According to PubChem BioAssay (NCI):
Where “and” joins values, the source holds several entries; their conditions need not be identical. Equal values may be shown once.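 96-well plates; 48 h exposure; 5 concentrations. Endpoints by linear interpolation between flanking doses. Not reached: highest tested concentration assigned. GI50 = concentration required for 50% inhibition of growth. TGI: concentration producing complete growth inhibition.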

What was measured:
Assay in all cases: inhibition of tumour cell growth, NCI panel, 48 h
HCC-2998 colon = tested on: HCC-2998 colon
SR leukemia = tested on: SR leukemia
K-562 leukemia = tested on: K-562 leukemia
SK-OV-3 ovarian = tested on: SK-OV-3 ovarian
U251 CNS = tested on: U251 CNS
NCI-H522 lung = tested on: NCI-H522 lung
HL-60(TB) leukemia = tested on: HL-60(TB) leukemia
LXFL 529 NSCLC = tested on: LXFL 529 NSCLC
DMS 114 small cell lung = tested on: DMS 114 small cell lung
HOP-62 NSCLC = tested on: HOP-62 NSCLC
UO-31 renal = tested on: UO-31 renal
KM12 colon = tested on: KM12 colon
NCI-H23 lung = tested on: NCI-H23 lung
IGROV1 ovarian = tested on: IGROV1 ovarian
DMS 273 small cell lung = tested on: DMS 273 small cell lung
ACHN renal = tested on: ACHN renal
786-0 renal = tested on: 786-0 renal
HOP-92 NSCLC = tested on: HOP-92 NSCLC
SN12C renal = tested on: SN12C renal
DLD-1 colon = tested on: DLD-1 colon
MOLT-4 leukemia = tested on: MOLT-4 leukemia
SNB-75 CNS = tested on: SNB-75 CNS
HT29 colon = tested on: HT29 colon
CCRF-CEM leukemia = tested on: CCRF-CEM leukemia
SK-MEL-28 melanoma = tested on: SK-MEL-28 melanoma
NCI-H226 lung = tested on: NCI-H226 lung
TK-10 renal = tested on: TK-10 renal
SNB-78 CNS = tested on: SNB-78 CNS
OVCAR-3 ovarian = tested on: OVCAR-3 ovarian
XF 498 CNS = tested on: XF 498 CNS
OVCAR-8 ovarian = tested on: OVCAR-8 ovarian
A498 renal = tested on: A498 renal
HCT-15 colon = tested on: HCT-15 colon
OVCAR-4 ovarian = tested on: OVCAR-4 ovarian
SF-539 CNS = tested on: SF-539 CNS
MALME-3M melanoma = tested on: MALME-3M melanoma
SF-295 CNS = tested on: SF-295 CNS
KM20L2 colon = tested on: KM20L2 colon
OVCAR-5 ovarian = tested on: OVCAR-5 ovarian
UACC-257 melanoma = tested on: UACC-257 melanoma
EKVX NSCLC = tested on: EKVX NSCLC
SW-620 colon = tested on: SW-620 colon
COLO 205 colon = tested on: COLO 205 colon
M14 melanoma = tested on: M14 melanoma
M19-MEL melanoma = tested on: M19-MEL melanoma
HCT-116 colon = tested on: HCT-116 colon
SF-268 CNS = tested on: SF-268 CNS
UACC-62 melanoma = tested on: UACC-62 melanoma
SNB-19 CNS = tested on: SNB-19 CNS
SK-MEL-5 melanoma = tested on: SK-MEL-5 melanoma
A549 NSCLC = tested on: A549 NSCLC
HOP-18 NSCLC = tested on: HOP-18 NSCLC
CAKI-1 renal = tested on: CAKI-1 renal
RPMI-8226 leukemia = tested on: RPMI-8226 leukemia
SK-MEL-2 melanoma = tested on: SK-MEL-2 melanoma
NCI-H460 lung = tested on: NCI-H460 lung
LOX IMVI melanoma = tested on: LOX IMVI melanoma
RXF 393 renal = tested on: RXF 393 renal

Structure (SMILES): COc1cc2c(c(OC)c1OC)-c1ccc(SC)c(=O)cc1[C@@H](NC(=O)c1ccc(F)cc1)CC2
- GI50 (HCC-2998 colon): < 0.01 µM
- TGI (HCC-2998 colon): 0.0572 µM and < 0.01 µM
- GI50 (SR leukemia): 0.0167 µM and < 0.01 µM
- TGI (SR leukemia): > 100 µM
- GI50 (K-562 leukemia): < 0.01 µM
- TGI (K-562 leukemia): > 100 µM
- GI50 (SK-OV-3 ovarian): < 0.01 µM
- TGI (SK-OV-3 ovarian): 0.072 µM and < 0.01 µM
- GI50 (U251 CNS): < 0.01 µM
- TGI (U251 CNS): 0.0113 µM
- TGI (NCI-H522 lung): < 0.01 µM
- TGI (HL-60(TB) leukemia): 12.7 µM
- GI50 (LXFL 529 NSCLC): < 0.01 µM
- TGI (LXFL 529 NSCLC): > 100 µM
- GI50 (DMS 114 small cell lung): 0.0267 µM and < 0.01 µM
- TGI (DMS 114 small cell lung): 0.0636 µM and < 0.01 µM
- GI50 (HOP-62 NSCLC): < 0.01 µM
- TGI (HOP-62 NSCLC): 39.9 µM
- TGI (UO-31 renal): 46.6 µM
- GI50 (KM12 colon): < 0.01 µM
- TGI (KM12 colon): 0.0871 µM and 0.0284 µM
- GI50 (NCI-H23 lung): < 0.01 µM
- TGI (NCI-H23 lung): < 0.01 µM
- GI50 (IGROV1 ovarian): < 0.01 µM
- TGI (IGROV1 ovarian): > 100 µM
- TGI (DMS 273 small cell lung): 44.7 µM
- GI50 (ACHN renal): < 0.01 µM
- TGI (ACHN renal): 91.3 µM
- GI50 (786-0 renal): < 0.01 µM
- TGI (786-0 renal): 11.5 µM
- TGI (HOP-92 NSCLC): 0.0958 µM
- GI50 (SN12C renal): < 0.01 µM
- TGI (SN12C renal): 46.8 µM
- GI50 (DLD-1 colon): < 0.01 µM
- TGI (DLD-1 colon): > 100 µM
- GI50 (MOLT-4 leukemia): < 0.01 µM
- TGI (MOLT-4 leukemia): > 100 µM
- GI50 (SNB-75 CNS): < 0.01 µM
- TGI (SNB-75 CNS): < 0.01 µM
- GI50 (HT29 colon): < 0.01 µM
- TGI (HT29 colon): 0.0891 µM and < 0.01 µM
- TGI (CCRF-CEM leukemia): > 100 µM
- TGI (SK-MEL-28 melanoma): > 100 µM
- GI50 (NCI-H226 lung): < 0.01 µM
- TGI (NCI-H226 lung): 0.0744 µM and < 0.01 µM
- GI50 (TK-10 renal): < 0.01 µM
- TGI (TK-10 renal): 35.5 µM
- GI50 (SNB-78 CNS): < 0.01 µM
- TGI (SNB-78 CNS): > 100 µM
- GI50 (OVCAR-3 ovarian): < 0.01 µM
- TGI (OVCAR-3 ovarian): 0.0378 µM and < 0.01 µM
- TGI (XF 498 CNS): 0.0844 µM
- GI50 (OVCAR-8 ovarian): < 0.01 µM
- TGI (OVCAR-8 ovarian): 14.6 µM
- GI50 (A498 renal): < 0.01 µM
- TGI (A498 renal): 0.0757 µM and < 0.01 µM
- GI50 (HCT-15 colon): 0.043 µM
- TGI (OVCAR-4 ovarian): 91.1 µM
- GI50 (SF-539 CNS): < 0.01 µM
- TGI (SF-539 CNS): 0.0696 µM and < 0.01 µM
- GI50 (MALME-3M melanoma): < 0.01 µM
- TGI (MALME-3M melanoma): 91.1 µM
- GI50 (SF-295 CNS): < 0.01 µM
- GI50 (KM20L2 colon): < 0.01 µM
- TGI (KM20L2 colon): 0.0427 µM and < 0.01 µM
- TGI (OVCAR-5 ovarian): > 100 µM
- TGI (UACC-257 melanoma): > 100 µM
- GI50 (EKVX NSCLC): < 0.01 µM
- TGI (EKVX NSCLC): > 100 µM
- GI50 (SW-620 colon): < 0.01 µM
- TGI (SW-620 colon): > 100 µM
- GI50 (COLO 205 colon): < 0.01 µM
- TGI (COLO 205 colon): 0.0388 µM and < 0.01 µM
- GI50 (M14 melanoma): < 0.01 µM
- TGI (M14 melanoma): 2.69 µM
- GI50 (M19-MEL melanoma): < 0.01 µM
- TGI (M19-MEL melanoma): > 100 µM
- GI50 (HCT-116 colon): < 0.01 µM
- TGI (HCT-116 colon): < 0.01 µM
- GI50 (SF-268 CNS): < 0.01 µM
- TGI (SF-268 CNS): 16.8 µM
- GI50 (UACC-62 melanoma): < 0.01 µM
- TGI (UACC-62 melanoma): 27.6 µM
- GI50 (SNB-19 CNS): 0.0287 µM and < 0.01 µM
- GI50 (SK-MEL-5 melanoma): 0.0305 µM
- GI50 (A549 NSCLC): 0.0489 µM and < 0.01 µM
- TGI (A549 NSCLC): > 100 µM

Structure (SMILES): COc1ccc2[nH]c3c(C)c4cc[n+](COC(=O)c5ccccc5)cc4c(C)c3c2c1
- TGI (SR leukemia): 0.213 µM
- TGI (K-562 leukemia): 1.46 µM
- TGI (SK-OV-3 ovarian): 5.78 µM
- TGI (HL-60(TB) leukemia): 4.13 µM
- TGI (HOP-62 NSCLC): 24 µM
- TGI (UO-31 renal): 5.68 µM
- TGI (HOP-18 NSCLC): 0.312 µM
- TGI (ACHN renal): 5.97 µM
- TGI (CAKI-1 renal): > 100 µM
- TGI (MOLT-4 leukemia): 0.584 µM
- TGI (CCRF-CEM leukemia): 1.75 µM
- TGI (TK-10 renal): 4.4 µM
- TGI (RPMI-8226 leukemia): 1.7 µM
- TGI (OVCAR-3 ovarian): 5.27 µM
- TGI (XF 498 CNS): 5.67 µM
- TGI (MALME-3M melanoma): 7.06 µM
- TGI (SF-295 CNS): 1.65 µM
- TGI (SF-268 CNS): 3.81 µM
- TGI (SNB-19 CNS): 6.85 µM

Structure (SMILES): Cc1ccc(N2C(=O)/C(=C3\Sc4c(nc(C)n(C)c4=O)N3c3ccccc3)SC2=S)cc1
- TGI (HCC-2998 colon): > 100 µM
- TGI (SR leukemia): > 100 µM
- TGI (K-562 leukemia): > 100 µM
- TGI (SK-OV-3 ovarian): > 100 µM
- TGI (U251 CNS): > 100 µM
- TGI (NCI-H522 lung): > 100 µM
- TGI (HL-60(TB) leukemia): > 100 µM
- TGI (LXFL 529 NSCLC): > 100 µM
- TGI (DMS 114 small cell lung): 95.1 µM
- TGI (UO-31 renal): > 100 µM
- TGI (KM12 colon): > 100 µM
- TGI (NCI-H23 lung): > 100 µM
- TGI (IGROV1 ovarian): > 100 µM
- TGI (DMS 273 small cell lung): > 100 µM
- TGI (ACHN renal): > 100 µM
- TGI (786-0 renal): > 100 µM
- TGI (HOP-92 NSCLC): > 100 µM
- TGI (SK-MEL-2 melanoma): > 100 µM
- TGI (SN12C renal): > 100 µM
- TGI (CAKI-1 renal): > 100 µM
- TGI (NCI-H460 lung): 44 µM
- TGI (MOLT-4 leukemia): > 100 µM
- TGI (LOX IMVI melanoma): > 100 µM
- TGI (SNB-75 CNS): 79.4 µM
- TGI (HT29 colon): > 100 µM
- TGI (CCRF-CEM leukemia): > 100 µM
- TGI (SK-MEL-28 melanoma): > 100 µM
- TGI (NCI-H226 lung): 64.6 µM
- TGI (TK-10 renal): > 100 µM
- TGI (SNB-78 CNS): > 100 µM
- TGI (RXF 393 renal): 53.9 µM
- TGI (RPMI-8226 leukemia): > 100 µM
- TGI (XF 498 CNS): > 100 µM
- TGI (OVCAR-8 ovarian): 91.3 µM
- TGI (A498 renal): 69 µM
- TGI (HCT-15 colon): > 100 µM
- TGI (OVCAR-4 ovarian): > 100 µM
- TGI (SF-539 CNS): 33.7 µM
- TGI (SF-295 CNS): > 100 µM
- TGI (KM20L2 colon): > 100 µM
- TGI (OVCAR-5 ovarian): > 100 µM
- TGI (UACC-257 melanoma): > 100 µM
- TGI (EKVX NSCLC): > 100 µM
- TGI (SW-620 colon): > 100 µM
- TGI (COLO 205 colon): > 100 µM
- TGI (M14 melanoma): > 100 µM
- TGI (M19-MEL melanoma): > 100 µM
- TGI (HCT-116 colon): > 100 µM
- TGI (SF-268 CNS): > 100 µM
- TGI (UACC-62 melanoma): > 100 µM
- TGI (SNB-19 CNS): > 100 µM
- TGI (SK-MEL-5 melanoma): > 100 µM
- TGI (A549 NSCLC): > 100 µM
